# Assay results: article PMC6271218, “Pharmacokinetics, Tissue Distribution and Excretion of Verticinone from F. hupehensis in Rats” (Molecules, 2014)
# Where two headings read alike, the source gives them in different places.
# Assays:
# [1] = Excretion study (urine, bile, feces) after oral dose; type: in vivo, SD rats; conditions: for dose excreted: SD, rat, faeces, oral, read-out: recovery from feces; for dose excreted / cumulative excreted fraction in bile (% of administered dose) / cumulative excreted fraction in feces (% of administered dose) / unchanged verticinone excreted from urine and feces / cumulative excreted fraction in urine (% of administered dose): i.g. 2 mg/kg; for dose excreted as unchanged parent compound: 2 mg/kg oral dose; for cumulative excreted fraction in bile (% of administered dose): bile 24 h; for cumulative excreted fraction in feces (% of administered dose): feces 36 h; for cumulative excreted fraction in urine (% of administered dose): unchanged verticinone
# Description: Ten rats were housed separately in metabolic cages and received a single oral dose of 2 mg/kg verticinone. Urine was collected at 0, 4, 8, 12, and 24 h for female rats and at 0, 4, 8, 12, 24, 36 h for male rats. Feces were collected at 0, 12, 24, and 36 h for female rats and at 0, 8, 12, 24, 36 h for male rats. The volume of urine samples was measured before storage at −20 °C. Feces were weighted and homogenized in 5 volumes (v/w) of 50% methanol/50% water and stored at −20 °C until analysis. In addition, ten rats were anesthetized with ether and then the bile ducts were cannulated with polyethylene tube. The rats also received a single oral dose of 2 mg/kg verticinone. Bile was collected at 0, 2, 4, 6, 8, 12, and 24 h after dosing and stored at −20 °C until analysis. Verticinone was extracted from urine, feces and bile samples based on the method described for tissue samples.
# (§1) The quantification of verticinone was performed by a LC-MS method based on the previously reported method with slight modifications. The liquid chromatography system consisted of a model 2010 chromatograph (Shimadzu, Kyoto, Japan) equipped with a Shim-Pack VP-ODS C18 column (150 mm × 2.0 mm, 5 μm). A Shimadzu 2010 mass spectrometer (Q-array-Octapole-Quadrupole mass analyzer) equipped with an electrospray ionization interface was used for MS detection. The mobile phase consisted of (A) distilled water and (B) methanol, and the flow rate was 0.2 mL/min. Chromatography separation was achieved using a gradient elution program, as follows: 0.03→6.0 min, B% 15→85; 6.0→7.0 min, B% 85→85; 7.0→8.0 min, B% 85→15; 8.0–12.0 min, B% 15→15. The column and autosampler tray temperature were kept constant at 35 °C and 20 °C, respectively. For the determination of verticinone, the positive mode was selected, along with the conditions as follows.
# (§2) CDL voltage […], probe voltage 4.5 kV, CDL temperature 250 °C, block temperature 200 °C, gas flow 1.5 L/min. Hupehenine was used as the internal standard (IS). Both verticinone and IS were detected using selected ion monitoring (SIM) at m/z 430.25 for verticinone and m/z 416.30 for hupehenine (IS), with a dwell time of 200 ms. Blank plasma, tissue homogenate, urine, feces homogenate and bile were used to prepare the corresponding calibration curves to avoid different matrix effects.
# [2] = Multiple-dose (successive i.g.) plasma pharmacokinetics; type: in vivo, SD rats; conditions: for Cmax / AUC(0-inf) / AUC(0-t) / Tmax / MRT last / Vd/F / half-life: SD, rat, plasma, po; for MRT last: read-out: MRT0–t; for Vd/F: read-out: Vz/F; for half-life: read-out: t1/2z (converted)
# Description: Pharmacokinetic studies of verticinone after intravenous (i.v.) and intragastrical (i.g.) administration to rats were designed to determine pharmacokinetic parameters and absolute bioavailability. For i.g administration, verticinone was suspended in 0.5% carboxymethyl cellulose sodium (CMC-Na) to final concentrations of 0.2, 0.4 and 0.8 mg/mL. Verticinone was dissolved in 20% ethanol/80% water to final concentration of 0.08 mg/mL for i.v. administration. For the i.v. group, five male and five female rats received a single dose of 0.4 mg/kg. Blood samples (0.25 mL) were obtained at 0, 4, 15, 30, 45, 60, 120, 240, 360, 480, 600 and 720 min after injection. For the single- i.g. group, fifteen male and fifteen female rats were divided into three groups, and each group received a single oral dose of 1, 2 and 4 mg/kg of verticinone, respectively. In addition, another five male and five female rats received multiple oral doses of 4 mg/kg/day, given as 2 mg/kg doses twice a day (one dose in the morning and the second dose 12 h later) for 7 days, then a single oral dose of 2 mg/kg on the eighth day. Blood samples (0.25 mL) were obtained at 0, 5, 15, 30, 45, 60, 90, 120, 240, 360, 480 and 720 min for male rats and at 0, 5, 10, 20, 30, 45, 60, 120, 240, 360, 480 and 720 min for female rats after oral administration (the eighth day for multiple-dose group). Blood samples were then centrifuged at 4000 rpm for 10 min, and the plasma was collected. All plasma samples were frozen and stored at −20 °C until analysis. Verticinone was isolated from plasma by liquid-liquid extraction according to our previously reported procedure.
# as §1, §2
# The pharmacokinetic parameters were calculated by the DAS 2.0 software (Chinese Pharmacological Association, Beijing, China) using a standard non-compartmental method. The Cmax and Tmax were determined from the observed data. The elimination rate constant (ke) was calculated by log-linear regression of verticinone concentrations during the terminal elimination phase and the half-life (t1/2) was calculated as 0.693/ke. The AUC0–t was calculated by the linear trapezoidal method. The AUC0–∞ was calculated as the sum of AUC0–t and the extrapolated part determined by Clast/ke. The total clearance (CL) was calculated as dose/AUC0–∞. The absolute bioavailability (F) was calculated by the following equation: F = [(AUCi.g./AUCi.v.) × (Dosei.v./Dosei.g.)] × 100%. The results were expressed as mean ± SD. Statistical analyses were performed using an unpaired Student’s t-test.
# [3] = Metabolic rate in rat liver microsomes; type: in vitro ADME
# [4] = Tissue distribution study after oral administration; type: in vivo, rats; conditions: for rank order of AUC values for individual tissues: i.g. 2 mg/kg
# Description: A single 2 mg/kg oral dose of verticinone was administrated to thirty rats (15 male and 15 female). Rats were sacrificed and tissues (heart, liver, spleen, lung, kidney, brain, stomach, intestine, skin, muscle, fat and gonads) were promptly removed at 0.25, 0.58 and 6 h (n = 10, with 5 male and 5 female) after dosing and washed with saline. Each tissue sample (0.2 g) was homogenized in 5 volumes (v/w) of distilled water. Tissue homogenates were stored at −20 °C until analysis. Verticinone was extracted from tissue homogenate based on the method described for plasma with slight modifications. The evaporated residue was reconstituted in 200 μL methanol, vortexed, followed by centrifugation at 15,000 rpm twice. An aliquot of 10 μL was injected into the LC-MS system for analysis.
# as §1
# CDL voltage […], probe voltage 4.5 kV, CDL temperature 250 °C, block temperature 200 °C, gas flow 1.5 L/min. Hupehenine was used as the internal standard (IS). Both verticinone and IS were detected using selected ion monitoring (SIM) at m/z 430.25 for verticinone and m/z 416.30 for hupehenine (IS), with a dwell time of 200 ms. […]
# [5] = successive i.g. 2 mg/kg, female rats
# [6] = successive i.g. 2 mg/kg, male rats
smiles,measurement,setting,value
"C[C@H]1CC[C@@H]2N(C1)C[C@H]1[C@@H]3C[C@H]4[C@@H](CC(=O)[C@H]5C[C@@H](O)CC[C@@]54C)[C@@H]3CC[C@@H]1[C@]2(C)O [verticinone, Verticinone]",dose excreted,[1]; female rats,< 1%
same,dose excreted,[1]; male rats,< 1%
same,dose excreted as unchanged parent compound,[1]; female rats,less than 1%
same,cumulative excreted fraction in bile (% of administered dose),[1]; female rats,0.02% ± 0.01
same,cumulative excreted fraction in feces (% of administered dose),[1]; female rats,0.42% ± 0.29
same,unchanged verticinone excreted from urine and feces,[1]; female rats,0.6%
same,cumulative excreted fraction in urine (% of administered dose),"[1]; female rats, urine 24 h",0.23% ± 0.05
same,dose excreted as unchanged parent compound,[1]; male rats,less than 4%
same,cumulative excreted fraction in bile (% of administered dose),[1]; male rats,0.31% ± 0.21
same,cumulative excreted fraction in feces (% of administered dose),[1]; male rats,0.92% ± 0.53
same,unchanged verticinone excreted from urine and feces,[1]; male rats,about 3.4%
same,cumulative excreted fraction in urine (% of administered dose),"[1]; male rats, urine 36 h",2.50% ± 0.98
same,Cmax,"[2]; successive i.g. 2 mg/kg (twice a day for 7 days, then single dose on eighth day), female rats",19.9 ± 14 ng/mL
same,AUC(0-inf),[2]; [5],43.4 ± 12 ng·h/mL
same,AUC(0-t),[2]; [5],36.1 ± 15.2 ng·h/mL
same,Tmax,[2]; [5],0.38 ± 0.22 h
same,MRT last,[2]; [5],2.24 ± 0.28 h
same,Vd/F,[2]; [5],485 ± 499 L/kg
same,half-life,[2]; [5],5.94 ± 4.84 h
same,AUC(0-inf),[2]; [6],455 ± 125 ng·h/mL
same,AUC(0-t),[2]; [6],439 ± 126 ng·h/mL
same,Cmax,[2]; [6],119 ± 26.8 ng/mL
same,Tmax,[2]; [6],0.8 ± 0.21 h
same,MRT last,[2]; [6],2.98 ± 0.3 h
same,Vd/F,[2]; [6],13.8 ± 4.07 L/kg
same,half-life,[2]; [6],2.08 ± 0.51 h
same,"AUC, fold higher after successive i.g. than single i.g.","[2]; female rats, 2 mg/kg",approximately 2 fold
same,"CL, fold lower after successive i.g. than single i.g.","[2]; female rats, 2 mg/kg",2 fold
same,"Cmax, fold higher after successive i.g. than single i.g.","[2]; female rats, 2 mg/kg",approximately 2 fold
same,metabolic rate in rat liver microsomes,[3]; female rats,3.76 × 10^−3 nmol/min/mg protein
same,"metabolic rate in rat liver microsomes, females faster than males",[3]; females vs males,about 1.7 times
same,metabolic rate in rat liver microsomes,[3]; male rats,2.18 × 10^−3 nmol/min/mg protein
same,rank order of AUC values for individual tissues,[4]; female rats,intestine > stomach > liver > kidney > spleen > lung > gonad > heart > muscle > skin > fat > brain
same,rank order of AUC values for individual tissues,[4]; male rats,intestine > stomach > liver > kidney > spleen > lung > heart > gonad > muscle > skin > fat > brain
same,concentration found in the brain,"[4]; oral 2 mg/kg, rats, 15 min, 35 min and 6 h",very little was found in the brain
